US8273767B2, “Bicyclic-substituted amines as histamine-3 receptor ligands” (Abbott Laboratories, priority 2002, dated 2012)
Structures can show the parent of a compound that is named as a salt.

SMILES | melting point
C[C@@H]1CCCN1CCc1ccc2cc(Br)ccc2c1 (as salt: HCl) [Example 2, (2R)-1-[2-(6-bromo-2-naphthyl)ethyl]-2-methylpyrrolidine] | 247.3 to 250.7 °C
C[C@@H]1CCCN1CCc1ccc2cc(C#N)ccc2c1 (as salt: hydrochloride) [Example 5, 6-{2-[(2R)-2-methyl-1-pyrrolidinyl]ethyl}-2-naphthonitrile] | 187.4 to 188.6 °C
C[C@@H]1CCCN1Cc1ccc2cc(-c3ccc(C#N)cc3)ccc2c1 (as salt: hydrochloride) [Example 6, 4-(6-{[(2R)-2-methyl-1-pyrrolidinyl]methyl}-2-naphthyl)benzonitrile] | 212.6 to 213.6 °C
C[C@@H]1CCCN1CCc1ccc2cc(-c3ccc(F)cc3)ccc2n1 (as salt: hydrochloride) [Example 43, 6-(4-fluorophenyl)-2-{2-[(2R)-2-methyl-1-pyrrolidinyl]ethyl}quinoline] | 145 °C
C[C@@H]1CCCN1CCc1ccc2cc(-c3ccc(C(F)(F)F)cc3)ccc2n1 (as salt: hydrochloride) [Example 47, 2-{2-[(2R)-2-methyl-1-pyrrolidinyl]ethyl}-6-[4-(trifluoromethyl)phenyl]quinoline] | 143 to 145 °C (dec.)
C[C@@H]1CCCN1CCc1ccc2cc(-c3cc(F)cc(F)c3)ccc2n1 (as salt: hydrochloride) [Example 49, 6-(3,5-difluorophenyl)-2-{2-[(2R)-2-methyl-1-pyrrolidinyl]ethyl}quinoline] | 164 to 165 °C
C[C@@H]1CCCN1CCc1ccc2cc(C(=O)c3cccc(F)c3)ccc2n1 (as salt: hydrochloride) [Example 50, (3-fluorophenyl)(2-{2-[(2R)-2-methyl-1-pyrrolidinyl]ethyl}-6-quinolinyl)methanone] | 162 to 164 °C (dec.)
C[C@@H]1CCCN1CCc1ccc2cc(-c3cccnc3)ccc2n1 (as salt: hydrochloride) [Example 51, 2-{2-[(2R)-2-methyl-1-pyrrolidinyl]ethyl}-6-(3-pyridinyl)quinoline] | 205 to 207 °C
Cc1ccc(-c2ccc3nc(CCN4CCC[C@H]4C)ccc3c2)c(C)n1 (as salt: hydrochloride) [Example 118, 6-(2,6-Dimethyl-pyridin-3-yl)-2-[2-(2(R)-methyl-pyrrolidin-1-yl)-ethyl]-quinoline] | 176 to 177 °C
COC(=O)c1ccc(-c2ccc3nc(CCN4CCC[C@H]4C)ccc3c2)cc1 (as salt: hydrochloride) [Example 121, 4-{2-[2-(2(R)-Methyl-pyrrolidin-1-yl)-ethyl]-quinolin-6-yl}-benzoic acid methyl ester] | 172 to 174 °C
CSc1ccc(-c2ccc3nc(CCN4CCC[C@H]4C)ccc3c2)cc1 (as salt: hydrochloride) [Example 122, 2-[2-(2(R)-Methyl-pyrrolidin-1-yl)-ethyl]-6-(4-methylsulfanyl-phenyl)-quinoline] | 158 to 159 °C
C[C@@H]1CCCN1CCc1ccc2cc(-c3ccc(F)nc3)ccc2n1 (as salt: hydrochloride) [Example 123, 6-(6-Fluoro-pyridin-3-yl)-2-[2-(2(R)-methyl-pyrrolidin-1-yl)-ethyl]-quinoline] | 162 to 163 °C
C[C@@H]1CCCN1CCc1ccc2cc(-c3ccc(C#N)cc3)ccc2c1 (as salt: tartrate) [Example 1, 4-(6-{2-[(2R)-2-methyl-1-pyrrolidinyl]ethyl}-2-naphthyl)benzonitrile] | 157.4 to 158.1 °C
C[C@@H]1CCCN1CCc1ccc2cc(-c3cccc(C#N)c3)ccc2n1 (as salt: tartrate) [Example 44, 3-(2-{2-[(2R)-2-methyl-1-pyrrolidinyl]ethyl}-6-quinolinyl)benzonitrile] | 172 °C
C[C@@H]1CCCN1CCc1ccc2cc(-c3ccc(F)nc3F)ccc2n1 (as salt: tartrate) [Example 109, 6-(2,6-Difluoro-pyridin-3-yl)-2-[2-(2R-methyl-pyrrolidin-1-yl)-ethyl]-quinoline] | 142 to 143 °C
C[C@@H]1CCCN1CCc1ccc2cc(-c3ccc(N(C)C)cc3)ccc2n1 (as salt: tartrate) [Example 115, Dimethyl-(4-{2-[2-(2(R)-methyl-pyrrolidin-1-yl)-ethyl]-quinolin-6-yl}-phenyl)-amine] | 155 to 156 °C
CC(=O)c1ccc(-c2ccc3nc(CCN4CCC[C@H]4C)ccc3c2)cc1 (as salt: tartrate) [Example 116, 1-(4-{2-[2-(2(R)-Methyl-pyrrolidin-1-yl)-ethyl]-quinolin-6-yl}-phenyl)-ethanone] | 152 to 154 °C
C[C@@H]1CCCN1CCc1ccc2cc(-c3cccc(C#N)c3)ccc2c1 [Example 7, 3-(6-{2-[(2R)-2-methyl-1-pyrrolidinyl]ethyl}-2-naphthyl)benzonitrile] | 228.5 to 231.6 °C

The next lines start with the values.

melting point | SMILES
174 to 175 °C | CC(=O)c1cccc(-c2ccc3nc(CCN4CCC[C@H]4C)ccc3c2)c1 (as salt: hydrochloride) [Example 45, 1-[3-(2-{2-[(2R)-2-methyl-1-pyrrolidinyl]ethyl}-6-quinolinyl)phenyl]ethanone]
165 °C (dec.) | COc1ccc(-c2ccc3nc(CCN4CCC[C@H]4C)ccc3c2)cc1 (as salt: hydrochloride) [Example 46, 6-(4-methoxyphenyl)-2-{2-[(2R)-2-methyl-1-pyrrolidinyl]ethyl}quinoline]
145 to 147 °C | C[C@@H]1CCCN1CCc1ccc2cc(-c3ccncc3)ccc2n1 (as salt: hydrochloride) [Example 107, 2-[2-(2R-Methyl-pyrrolidin-1-yl)-ethyl]-6-pyridin-4-yl-quinoline]
105 to 107 °C | C[C@@H]1CCCN1CCc1ccc2cc(-c3ccc(Cl)nc3Cl)ccc2n1 (as salt: hydrochloride) [Example 111, 6-(2,6-Dichloro-pyridin-3-yl)-2-[2-(2(R)-methyl-pyrrolidin-1-yl)-ethyl]-quinoline]
160 to 162 °C | C[C@@H]1CCCN1CCc1ccc2cc(-c3cncnc3)ccc2n1 (as salt: hydrochloride) [Example 113, 2-[2-(2(R)-Methyl-pyrrolidin-1-yl)-ethyl]-6-pyrimidin-5-yl-quinoline]
154 to 155 °C | C[C@@H]1CCCN1CCc1ccc2cc(-c3ccc(Cl)cc3)ccc2n1 (as salt: hydrochloride) [Example 117, 6-(4-Chloro-phenyl)-2-[2-(2(R)-methyl-pyrrolidin-1-yl)-ethyl]-quinoline]
174 to 175 °C | Cc1noc(C)c1-c1ccc2nc(CCN3CCC[C@H]3C)ccc2c1 (as salt: hydrochloride) [Example 120, 6-(3,5-Dimethyl-isoxazol-4-yl)-2-[2-(2(R)-methyl-pyrrolidin-1-yl)-ethyl]-quinoline]
164 °C | C[C@@H]1CCCN1CCc1ccc2cc(-c3ccc(C#N)cc3)ccc2n1 (as salt: tartrate) [Example 42, 4-(2-{2-[(2R)-2-methyl-1-pyrrolidinyl]ethyl}-6-quinolinyl)benzonitrile]
132 to 134 °C | COc1ccc(-c2ccc3nc(CCN4CCC[C@H]4C)ccc3c2)cn1 (as salt: tartrate) [Example 108, 6-(6-Methoxy-pyridin-3-yl)-2-[2(R)-(2-methyl-pyrrolidin-1-yl)-ethyl]-quinoline]
167 to 168 °C | C[C@@H]1CCCN1CCc1ccc2cc(-c3ccc(Cl)nc3)ccc2n1 (as salt: tartrate) [Example 110, 6-(6-Chloro-pyridin-3-yl)-2-[2-(2(R)-methyl-pyrrolidin-1-yl)-ethyl]-quinoline]
100 to 102 °C | C[C@@H]1CCCN1CCc1ccc2cc(-c3cncc(C#N)c3)ccc2n1 (as salt: tartrate) [Example 124, 5-{2-[2-(2(R)-Methyl-pyrrolidin-1-yl)-ethyl]-quinolin-6-yl}-nicotinonitrile]
